Measurements: PMC10402201, “CYP5122A1 encodes an essential sterol C4-methyl oxidase in Leishmania donovani and determines the antileishmanial activity of antifungal azoles” (Research Square, 2023)

How the values were obtained:
CYP5122A1 = target: T1, CYP5122A1 (Leishmania donovani, UniProt A0A3S7X0B6); test: UV-Vis difference spectra (type II binding), plus BFC inhibition assay
T1 construct: gene LdCL_270005800; truncated form of XP_003861867.1 without the first 60 amino acids (transmembrane domain), N-terminal solubility tag, C-terminal His-tag
T1 sequence (A0A3S7X0B6 61-592): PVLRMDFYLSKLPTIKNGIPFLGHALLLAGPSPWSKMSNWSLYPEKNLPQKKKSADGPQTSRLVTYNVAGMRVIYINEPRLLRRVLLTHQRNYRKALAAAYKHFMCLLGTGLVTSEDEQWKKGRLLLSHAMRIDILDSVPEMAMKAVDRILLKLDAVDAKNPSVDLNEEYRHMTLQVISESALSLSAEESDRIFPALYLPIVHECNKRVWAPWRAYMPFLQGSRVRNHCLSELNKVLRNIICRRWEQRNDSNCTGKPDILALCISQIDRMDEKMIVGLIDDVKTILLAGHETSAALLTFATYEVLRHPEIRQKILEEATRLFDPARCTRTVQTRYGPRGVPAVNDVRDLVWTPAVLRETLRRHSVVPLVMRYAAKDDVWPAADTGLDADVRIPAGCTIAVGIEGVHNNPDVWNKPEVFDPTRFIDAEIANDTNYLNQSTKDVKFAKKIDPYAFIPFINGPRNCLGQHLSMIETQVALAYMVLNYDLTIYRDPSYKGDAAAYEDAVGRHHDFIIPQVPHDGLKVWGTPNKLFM

CYP51 = target: T2, CYP51 (Leishmania donovani, UniProt A0A3S7WRS7); test: as above
T2 construct: gene LdCL_110017000; truncated form of XP_003859085.1 without the first 31 amino acids (transmembrane domain), N-terminal solubility tag, C-terminal His-tag
T2 sequence (A0A3S7WRS7 32-480): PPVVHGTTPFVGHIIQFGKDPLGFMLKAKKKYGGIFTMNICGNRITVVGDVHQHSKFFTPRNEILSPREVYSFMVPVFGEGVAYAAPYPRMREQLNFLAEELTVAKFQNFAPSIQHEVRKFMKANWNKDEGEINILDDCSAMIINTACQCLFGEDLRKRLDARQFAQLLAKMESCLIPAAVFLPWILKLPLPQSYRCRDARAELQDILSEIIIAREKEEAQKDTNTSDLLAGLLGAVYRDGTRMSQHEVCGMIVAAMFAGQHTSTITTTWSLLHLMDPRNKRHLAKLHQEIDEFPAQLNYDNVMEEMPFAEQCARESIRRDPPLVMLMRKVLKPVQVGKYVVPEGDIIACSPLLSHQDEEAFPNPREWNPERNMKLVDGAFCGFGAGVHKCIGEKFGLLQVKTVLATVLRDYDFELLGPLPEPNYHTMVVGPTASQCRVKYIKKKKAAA

`Clc1ccccc1C(c1ccccc1)(c1ccccc1)n1ccnc1` [clotrimazole] was tested. Which “UV-Vis difference spectra (type II binding), plus BFC inhibition assay” value (CYP5122A1) did it give?
The value was “Clotrimazole exhibited type II binding to both CYP51 and CYP5122A1”.

What about the “UV-Vis difference spectra (type II binding), plus BFC inhibition assay” value (CYP51) of the same compound?
Its value is “Clotrimazole exhibited type II binding to both CYP51 and CYP5122A1”.

`OC(Cn1cncn1)(Cn1cncn1)c1ccc(F)cc1F` [fluconazole] was tested. Which “UV-Vis difference spectra (type II binding), plus BFC inhibition assay” value (CYP51) did it give?
Its value is “Fluconazole and voriconazole elicited type II binding with CYP51 but no specific responses with CYP5122A1”.

For `C[C@@H](c1ncncc1F)[C@](O)(Cn1cncn1)c1ccc(F)cc1F` [voriconazole], which “UV-Vis difference spectra (type II binding), plus BFC inhibition assay” value (CYP51) is on record?
The value was “Fluconazole and voriconazole elicited type II binding with CYP51 but no specific responses with CYP5122A1”.
